Measured values published in patent US11236354B2, “Glyphosate-n-acetyltransferase (GLYAT) sequences and methods of use” (PIONEER HI-BRED INTERNATIONAL, INC., priority 2013, dated 2022).
Where “and” joins values, the source holds several entries; their conditions need not be identical. Equal values may be shown once.

Experiments:
Experiment in all cases: Substrate saturation kinetic analysis of purified GLYAT
[1] = target: GLYAT high specificity variant SEQ ID NO:29 (derived from SEQ ID NO:1 and 2; C29I, F31Y; motif VIMYETDLL, SEQ ID NO:174) (Bacillus licheniformis, UniProt Q65LG7); format: biochemical
Protocol: E. coli cultures in LB or 2×YT were grown overnight at 37° C. to saturation. The cells were used as a 2% inoculum into fresh media. When OD reached 0.6, IPTG was added to 0.2 mM and growth was continued for at least 6 hours. Cells were harvested by centrifugation and stored at −80° C. Cells were lysed with BPER (Pierce) containing 1 mM dithiothreitol, 0.2 mg/ml lysozyme, 2 mg/ml protease inhibitor cocktail (Sigma bacterial cell cocktail, P8465) and endonuclease. […] Purity as evaluated by polyacrylamide gel electrophoresis was deemed consistently high enough to be assumed to be 100%. Protein concentration was determined with the Bradford assay using a large-scale lot of produced GLYAT protein as standard.
Kinetic parameters for various substrates were obtained using a range of seven substrate concentrations plus a blank containing none of the varied substrate. […] Absorbance was monitored for one minute with a Spectramax 384 Plus plate reader (Molecular Devices). If the amino acid present at position 30 (29 if alanine is absent at position 2) was cysteine, absorbance was monitored at 235 nm, which directly detects cleavage of the sulfoester bond of acetyl CoA. […]

[2] = target: novel GLYAT variants of Table 3 (high specificity variants derived from SEQ ID NO:1 and 2) (Bacillus licheniformis, UniProt Q65LG7); format: biochemical; details: lowest value in novel variants
Protocol: E. coli cultures in LB or 2×YT were grown overnight at 37° C. to saturation. The cells were used as a 2% inoculum into fresh media. When OD reached 0.6, IPTG was added to 0.2 mM and growth was continued for at least 6 hours. Cells were harvested by centrifugation and stored at −80° C. Cells were lysed with BPER (Pierce) containing 1 mM dithiothreitol, 0.2 mg/ml lysozyme, 2 mg/ml protease inhibitor cocktail (Sigma bacterial cell cocktail, P8465) and endonuclease. Lysate supernatants were passed through a column of NHS-activated Agarose (Thermo, #26197) derivatized with coenzyme A. Columns were washed with 25 mM Hepes, pH 7, containing progressively higher concentrations of KCl, then eluted with 25 mM Hepes, 100 mM KCl, 10% ethylene glycol and 1 mM acetyl CoA. Purity as evaluated by polyacrylamide gel electrophoresis was deemed consistently high enough to be assumed to be 100%. Protein concentration was determined with the Bradford assay using a large-scale lot of produced GLYAT protein as standard.
Kinetic parameters for various substrates were obtained using a range of seven substrate concentrations plus a blank containing none of the varied substrate. The non-varied substrate was present at a saturating concentration. Six-microliter aliquots of 50-fold concentrated stock solutions of the varied substrate were placed in a 96-well assay plate (Greiner BioOne UV-Star). Reactions were started with the addition of 294 ul of 25 mM Hepes, pH 7.0, 100 mM KCL, 10% ethylene glycol, the non-varied substrate and 10 to 200 nM enzyme. Absorbance was monitored for one minute with a Spectramax 384 Plus plate reader (Molecular Devices). If the amino acid present at position 30 (29 if alanine is absent at position 2) was cysteine, absorbance was monitored at 235 nm, which directly detects cleavage of the sulfoester bond of acetyl CoA. If the amino acid present at position 30 (29 if alanine is absent at position 2) was isoleucine, 0.5 mM 5,5′-dithiobis-(2-nitrobenzoic acid), which reacts with the coenzyme A thiol generated in the enzyme catalyzed reaction, was included in the reaction mix and absorbance was monitored at 412 nm. Initial rates were processed by the Softmax software to obtain kinetic parameters, using the double-reciprocal transformation.

[3] = target: GLYAT (glyphosate-N-acetyltransferase), parent, SEQ ID NO:1 (Bacillus licheniformis, UniProt Q65LG7, E119R/E14D/E65Q/E67K/E68K/G37R/G38S/I132T/I135V/I15L/I19V/I53V/I91V/K101R/K144R/K58Q/L105M/L106I/L145I/L26I/L36T/L97I/M75V/R47G/R92K/T33S/T89S/V114A/Y130F/Y31F/Y45F)
[4] = target: GLYAT variant SEQ ID NO:3 (derived from SEQ ID NO:1 and 2) (Bacillus licheniformis, UniProt Q65LG7, A28V/D131E/E119K/E14D/E65Q/E67K/E68K/E83D/G37R/I132T/I135V/I15L/I19V/I2L/I53V/I91V/K101R/K144R/K58Q/L105M/L106I/L26I/L97I/M75V/R47G/R92K/T89S/V114A/Y130F/Y45F); details: pH 7.0
[5] = target: GLYAT variant SEQ ID NO:4 (derived from SEQ ID NO:1 and 2) (Bacillus licheniformis, UniProt Q65LG7, D131E/E14D/E65Q/E67K/E68K/G37R/G38S/I132T/I135A/I15L/I19V/I53V/I91V/K101R/K144R/K58Q/L105M/L26I/L36T/L97I/M75V/R47G/R92K/T33S/T89S/V114A/Y130F/Y31F/Y45F); details: pH 7.0
[6] = target: GLYAT variant SEQ ID NO:6 (derived from SEQ ID NO:1 and 2) (Bacillus licheniformis, UniProt Q65LG7, A28V/D131E/E119K/E14D/E65Q/E67K/E68K/G37R/I132T/I135A/I15L/I19V/I53V/I91V/K101R/K144R/K58Q/L105M/L106I/L26I/L36T/L97I/M75A/R47G/R92K/T89S/V114A/V4I/Y130F/Y45F/Y46C); details: pH 7.0
[7] = target: GLYAT variant SEQ ID NO:8 (derived from SEQ ID NO:1 and 2) (Bacillus licheniformis, UniProt Q65LG7, A28V/D131E/E119K/E14D/E65Q/E67K/E68K/E83D/G37R/G38S/I132T/I135A/I15L/I53V/I91V/K101R/K144R/K58Q/L105M/L106I/L26I/L36T/L97I/M75V/N8S/R47G/R92K/T89S/V114A/Y130F/Y45F); details: pH 7.0

## N[C@@H](CC(=O)O)C(=O)O [aspartate]
[1]; 25 mM Hepes, pH 7.0
  activity with aspartate (kcat/Km): 0.48 min⁻¹ mM⁻¹
[1]; Table 5, ratio of kcat/Km asp to kcat/Km glyph
  kcat/Km asp, % glyph: 0.013%
[2]
  specificity (kcat/KM asp/kcat/KM glyph): ≥ 0.014%
[2]; 25 mM Hepes, pH 7.0
  kcat/KM with aspartate: ≥ 0.1 min⁻¹ mM⁻¹
[3]; 25 mM Hepes, pH 7.0
  kcat/KM with aspartate: 13.7 min⁻¹ mM⁻¹
[3]; Table 5 and text, specificity (kcat/KM asp/kcat/KM glyph), listed as asp
  kcat/Km asp, % glyph: 1.3% and 1.27%
[3]; pH 7.0
  Asp as % of glyph (kcat/KM asp / kcat/KM glyph): 1.273%
[4]
  Asp as % of glyph (kcat/KM asp / kcat/KM glyph): 0.403%
[5]
  Asp as % of glyph (kcat/KM asp / kcat/KM glyph): 0.210%
[6]
  Asp as % of glyph (kcat/KM asp / kcat/KM glyph): 0.052%
[7]
  Asp as % of glyph (kcat/KM asp / kcat/KM glyph): 0.079%
